Assay results reported in patent US9790537B2, “Quinone-masked probes as labeling reagents for cell uptake measurements” (PROMEGA CORPORATION, priority 2014, dated 2017).

Tests used:
OATP1B1*1a = OATP1B1*1a (Homo sapiens, UniProt Q9Y6L6); experiment: Cell-based uptake transporter assay, TransportoCells OATP1B1*1a, luminescence; conditions: various concentrations, 30 min 37° C.; FIG. 13
Experimental: (§1) Stock solutions of each compound were prepared as 10 mM in methanol. Corning TransportoCells OATP1B1*1a, OATP1B3, and Control Cells were used as cell model for cell-based uptake transporter assay. Cells were cultured according to manufacturer's recommendations. Briefly, cells were thawed from liquid nitrogen storage and cultured in Dulbecco's Modified Eagle's medium supplemented with fetal bovine serum (FBS), MEM non-essential amino acid, and sodium butyrate. Cells were then plated in Corning 96-well, poly-D-Lysine white/clear plate at 100,000 cells/well in 100 μl medium and incubated for 24 hours at 37° C. with 5% CO2.
(§2) The uptake transporter assay was carried out by adding 100 μl of Hank's balanced salt solution containing 10 μM of one of the compounds to all the cells and incubated at 37° C. for 30 minutes. […] After a 20 minute incubation at room temperature (20°-25° C.), luminescence was detected on a GloMax® luminometer. […]
(§3) The uptake transporter assay was carried out by adding 100 μl of Hank's balanced salt solution containing various concentrations (See FIG. 13) of PBI-5651 to all the cells and incubated at 37° C. for 30 minutes. […] After a 20 minute incubation at room temperature (20°-25° C.), luminescence was detected on a GloMax® luminometer.

OATP1B3 = OATP1B3 (Homo sapiens, UniProt Q9NPD5); experiment: Cell-based uptake transporter assay, TransportoCells OATP1B3, luminescence; conditions: various concentrations, 30 min 37° C.; FIG. 13
Experimental: as §1, §2, §3

Sequence of OATP1B3 (Q9NPD5 whole entry): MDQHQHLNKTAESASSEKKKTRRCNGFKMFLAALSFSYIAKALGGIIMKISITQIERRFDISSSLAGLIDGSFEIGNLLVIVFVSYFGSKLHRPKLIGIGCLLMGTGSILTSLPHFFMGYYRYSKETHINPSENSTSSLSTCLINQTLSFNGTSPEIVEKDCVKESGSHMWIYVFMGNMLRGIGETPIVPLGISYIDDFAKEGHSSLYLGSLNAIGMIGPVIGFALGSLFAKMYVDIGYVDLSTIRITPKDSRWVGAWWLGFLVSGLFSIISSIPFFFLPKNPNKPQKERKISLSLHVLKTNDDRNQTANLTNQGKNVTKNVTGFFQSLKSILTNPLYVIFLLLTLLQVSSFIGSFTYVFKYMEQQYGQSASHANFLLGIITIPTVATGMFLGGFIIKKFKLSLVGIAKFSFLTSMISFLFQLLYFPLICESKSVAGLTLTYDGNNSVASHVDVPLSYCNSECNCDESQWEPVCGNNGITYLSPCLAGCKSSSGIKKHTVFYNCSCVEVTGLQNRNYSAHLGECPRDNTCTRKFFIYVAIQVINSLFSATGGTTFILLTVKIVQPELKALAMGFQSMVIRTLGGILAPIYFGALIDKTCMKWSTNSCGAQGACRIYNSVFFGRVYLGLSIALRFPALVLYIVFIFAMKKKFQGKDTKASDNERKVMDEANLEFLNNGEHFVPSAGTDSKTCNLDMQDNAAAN

Question: `CC1=C(C)C(=O)C(C(C)(C)CC(=O)N(C)CCN(CCOCCOCCC(=O)NCCCCC(NC(=O)CC[C@@H](C)[C@H]2CC[C@H]3[C@@H]4[C@@H](O)C[C@@H]5C[C@H](O)CC[C@]5(C)[C@H]4CC[C@]23C)C(=O)O)C(=O)Oc2ccc3nc(C4=NC(C(=O)O)CS4)sc3c2)=C(C)C1=O` (stereo partly drawn) [PBI-5651, 2-(6-((((20R)-15-carboxy-20-((3R,5S,7S,8R,9S,10S,13R,14S,17R)-3,7-dihydroxy-10,13-dimethylhexadecahydro-1H-cyclopenta[a]phenanthren-17-yl)-9,17-dioxo-3,6-dioxa-10,16-diazahenicosyl)(2-(N,3-dimethyl-3-(2,4,5-trimethyl-3,6-dioxocyclohexa-1,4-dien-1-yl)butanamido)ethyl)carbamoyl)oxy)benzo[d]thiazol-2-yl)-4,5-dihydrothiazole-4-carboxylic acid] was tested. Which “response of luminescence (RLU) to compound concentration” value (OATP1B1*1a) did it give?
Answer: Its value is “dynamic response of luminescence”.

Question: And the “response of luminescence (RLU) to compound concentration” value (OATP1B3)?
Answer: Its value is “dynamic response of luminescence”.
